From patent US11702422B2, “Imidazopyridazines as modulators of IL-17” (Janssen Pharmaceutica NV, priority 2020, dated 2023)

Columns and labels:
[1] = molecular target: IL-17A(FLAG-Tagged): IL-17RA(His-Tagged) (Homo sapiens, UniProt Q16552, K93Q); assay: IL-17A(FLAG-Tagged): IL-17RA(His-Tagged) Binding Disruption Eu-HTRF Assay; details: IL-17A/IL-17RA binding disruption, simple average if tested more than once
Method in brief: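 IC50 comes from a one-site competition fit of the HTRF 665/620 nm ratio. Compound dilutions (2-fold, 22 points) were held 1 h rt with FLAG-tagged IL-17A dimer, then His-tagged IL-17RA plus Eu-cryptate anti-FLAG and D2 anti-His antibodies were added for 2 h rt.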

[2] = system: IL-17A-induced G-CSF production in human normal keratinocyte (NHK); assay: NHK Assay: IL-17A-induced G-CSF production in human normal keratinocytes; assay type: cell-based; details: 24 h, adult normal human keratinocytes, IL-17A 5 ng/mL, simple average if tested more than once
Method in brief: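 IL-17A (5 ng/mL final) was pre-incubated 1 h at rt with titrated compound and then added to adult normal human keratinocytes (5% FBS, 0.2% DMSO) for 24 h at 37° C. Supernatant G-CSF was measured by HTRF against a standard curve to derive IC50. Viability was checked by CellTiter-Glo.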

UniProt Q16552, sequence (Q16552 with tags, fused parts or gaps K93Q): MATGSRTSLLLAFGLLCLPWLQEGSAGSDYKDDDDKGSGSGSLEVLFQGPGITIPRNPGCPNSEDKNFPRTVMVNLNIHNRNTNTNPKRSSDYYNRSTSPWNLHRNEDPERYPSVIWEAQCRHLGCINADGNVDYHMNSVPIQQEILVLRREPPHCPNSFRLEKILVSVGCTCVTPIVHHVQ

Row | SMILES | IC50 [1] [nM] | IC50 ([2]; Homo sapiens, Keratinocyte) [nM] | IC50 [2] [nM]
1 | N#Cc1ccccc1C(=O)N[C@H](c1cn2ncc([C@H](NC(=O)CCC(F)(F)F)C3CC3)cc2n1)C1CCC(F)(F)CC1 [Example 208, 2-Cyano-N—((S)-(7-((R)-cyclopropyl(4,4,4-trifluorobutanamido)methyl)imidazo[1,2-b]pyridazin-2-yl)(4,4-difluorocyclohexyl)methyl)benzamide] | 5300 | > 20000 | 
2 | CC(C)c1cc(C(=O)N[C@H](c2cn3ncc([C@H](NC(=O)CCC(F)(F)F)C4CC4)cc3n2)C2CCC(F)(F)CC2)ncn1 [Example 162, N—((S)-(7-((R)-Cyclopropyl(4,4,4-trifluorobutanamido)methyl)imidazo[1,2-b]pyridazin-2-yl)(4,4-difluorocyclohexyl)methyl)-6-isopropylpyrimidine-4-carboxamide] | 150 | 940 | 
3 | Cc1nscc1C(=O)N[C@H](c1cn2ncc([C@H](NC(=O)CCC(F)(F)F)C3CC3)cc2n1)C1CCC(F)(F)CC1 [Example 161, N—((S)-(7-((R)-Cyclopropyl(4,4,4-trifluorobutanamido)methyl)imidazo[1,2-b]pyridazin-2-yl)(4,4-difluorocyclohexyl)methyl)-3-methylisothiazole-4-carboxamide] | 61 | 310 | 
4 | CC(C)n1nncc1C(=O)N[C@H](c1cn2ncc([C@H](NC(=O)CCC(F)(F)F)C3CC3)cc2n1)C1CCC(F)(F)CC1 [Example 65, N—((S)-(7-((R)-Cyclopropyl(4,4,4-trifluorobutanamido)methyl)imidazo[1,2-b]pyridazin-2-yl)(4,4-difluorocyclohexyl)methyl)-1-isopropyl-1H-1,2,3-triazole-5-carboxamide] | 110 | 72 | 
5 | O=C(CCC(F)(F)F)N[C@@H](c1cnn2cc([C@@H](NC(=O)c3ncnn3CCC(F)(F)F)C3CCC(F)(F)CC3)nc2c1)C1CC1 [Example 38, N—((S)-(7-((R)-Cyclopropyl(4,4,4-trifluorobutanamido)methyl)imidazo[1,2-b]pyridazin-2-yl)(4,4-difluorocyclohexyl)methyl)-1-(3,3,3-trifluoropropyl)-1H-1,2,4-triazole-5-carboxamide] | 78 | 400 | 
6 | O=C(CCC(F)(F)F)N[C@@H](c1cnn2cc([C@@H](NC(=O)c3cccc(C4CC4(F)F)c3)C3CCC(F)(F)CC3)nc2c1)C1CC1 (stereo partly drawn) [Example 164, N—((S)-(7-((R)-Cyclopropyl(4,4,4-trifluorobutanamido)methyl)imidazo[1,2-b]pyridazin-2-yl)(4,4-difluorocyclohexyl)methyl)-3-(2,2-difluorocyclopropyl)benzamide] | 55 | 130 | 
7 | Cc1c(C(=O)N[C@H](c2cn3ncc([C@H](NC(=O)CCC(F)(F)F)C4CC4)cc3n2)C2CCC(F)(F)CC2)cnn1CC(F)F [Example 50, N—((S)-(7-((R)-Cyclopropyl(4,4,4-trifluorobutanamido)methyl)imidazo[1,2-b]pyridazin-2-yl)(4,4-difluorocyclohexyl)methyl)-1-(2,2-difluoroethyl)-5-methyl-1H-pyrazole-4-carboxamide] | 350 | 1000 | 
8 | [2H]C([2H])([2H])C([2H])([2H])n1nccc1C(=O)N[C@H](c1cn2ncc(C(CC)NC(=O)CC3CC(F)(F)C3)cc2n1)C1CCC(F)(F)CC1 (single isomer, unassigned) [Example 506, N—((S)-(7-((R*)-1-(2-(3,3-Difluorocyclobutyl)acetamido)propyl)imidazo[1,2-b]pyridazin-2-yl)(4,4-difluorocyclohexyl)methyl)-1-(ethyl-d5)-1H-pyrazole-5-carboxamide] | 200 | 130 | 
9 | O=C(CCC(F)(F)F)N[C@@H](c1cnn2cc([C@@H](NC(=O)[C@@H]3CC34CCC4)C3CCC(F)(F)CC3)nc2c1)C1CC1 (relative stereo) [Example 366, (R*)—N—((S)-(7-((R*)-Cyclopropyl(4,4,4-trifluorobutanamido)methyl)imidazo[1,2-b]pyridazin-2-yl)(4,4-difluorocyclohexyl)methyl)spiro[2.3]hexane-1-carboxamide] | 2400 | > 20000 | 
10 | CC(C)n1nccc1C(=O)N[C@H](c1cn2ncc([C@H](NC(=O)CCC(C)(F)F)C3CC3)cc2n1)C1CCC(F)(F)CC1 [Example 260, N—((S)-(7-((R)-Cyclopropyl(4,4-difluoropentanamido)methyl)imidazo[1,2-b]pyridazin-2-yl)(4,4-difluorocyclohexyl)methyl)-1-isopropyl-1H-pyrazole-5-carboxamide] | 120 | 180 | 
11 | O=C(CCC(F)(F)F)N[C@@H](c1cnn2cc([C@@H](NC(=O)c3conc3CCC(F)(F)F)C3CCC(F)(F)CC3)nc2c1)C1CC1 [Example 77, N—((S)-(7-((R)-Cyclopropyl(4,4,4-trifluorobutanamido)methyl)imidazo[1,2-b]pyridazin-2-yl)(4,4-difluorocyclohexyl)methyl)-3-(3,3,3-trifluoropropyl)isoxazole-4-carboxamide] | 50 | 60 | 
12 | O=C(CCC(F)(F)F)N[C@@H](c1cnn2cc([C@@H](NC(=O)c3ncnn3CCC(F)F)C3CCC(F)(F)CC3)nc2c1)C1CC1 [Example 46, N—((S)-(7-((R)-Cyclopropyl(4,4,4-trifluorobutanamido)methyl)imidazo[1,2-b]pyridazin-2-yl)(4,4-difluorocyclohexyl)methyl)-1-(3,3-difluoropropyl)-1H-1,2,4-triazole-5-carboxamide] | 130 | 640 | 

Second part, led by results:

Row | IC50 [1] [nM] | SMILES | IC50 ([2]; Homo sapiens, Keratinocyte) [nM] | IC50 [2] [nM]
13 | 35 | O=C(CC1CC(F)(F)C1)N[C@@H](c1cnn2cc([C@@H](NC(=O)c3nonc3COC(F)F)C3CCC(F)(F)CC3)nc2c1)C1CC1 [Example 385, N—((S)-(7-((R)-Cyclopropyl(2-(3,3-difluorocyclobutyl)acetamido)methyl)imidazo[1,2-b]pyridazin-2-yl)(4,4-difluorocyclohexyl)methyl)-4-((difluoromethoxy)methyl)-1,2,5-oxadiazole-3-carboxamide] | 32 | 
14 | 77 | CN(C)c1nonc1C(=O)N[C@H](c1cn2ncc([C@H](NC(=O)CC3CC(F)(F)C3)C3CC3)cc2n1)C1CCC(F)(F)CC1 [Example 406, N—((S)-(7-((R)-Cyclopropyl(2-(3,3-difluorocyclobutyl)acetamido)methyl)imidazo[1,2-b]pyridazin-2-yl)(4,4-difluorocyclohexyl)methyl)-4-(dimethylamino)-1,2,5-oxadiazole-3-carboxamide] | 290 | 
15 | 480 | CC(C)n1nccc1C(=O)N[C@H](c1cn2ncc(C(CO)NC(=O)CC3CC(F)(F)C3)cc2n1)C1CCC(F)(F)CC1 (single isomer, unassigned) [Example 533, N—((S)-(7-((S*)-1-(2-(3,3-Difluorocyclobutyl)acetamido)-2-hydroxyethyl)imidazo[1,2-b]pyridazin-2-yl)(4,4-difluorocyclohexyl)methyl)-1-isopropyl-1H-pyrazole-5-carboxamide] |  | 150
16 | 8600 | Cc1nonc1C(=O)N[C@H](c1cn2ncc([C@H](NC(=O)[C@@]34C[C@@H](F)[C@@H]3C4)C3CC3)cc2n1)C1CCC(F)(F)CC1 (relative stereo) [Example 340, N—((S)-(7-((R)-Cyclopropyl((1S*,3R*,4R*)-3-fluorobicyclo[2.1.0]pentane-1-carboxamido)methyl)imidazo[1,2-b]pyridazin-2-yl)(4,4-difluorocyclohexyl)methyl)-4-methyl-1,2,5-oxadiazole-3-carboxamide] | > 20000 | 
17 | 83 | Cc1nonc1C(=O)N[C@H](c1cn2ncc([C@H](NC(=O)CCC3CC3(F)F)C3CC3)cc2n1)C1CCC(F)(F)CC1 (stereo partly drawn) [Example 290, N-((1S)-(7-((1R)-Cyclopropyl(3-(2,2-difluorocyclopropyl)propanamido)methyl)imidazo[1,2-b]pyridazin-2-yl)(4,4-difluorocyclohexyl)methyl)-4-methyl-1,2,5-oxadiazole-3-carboxamide] | 220 | 
18 | 340 | CCOCC(NC(=O)CC1CC(F)(F)C1)c1cnn2cc([C@@H](NC(=O)c3ccnn3C(C)C)C3CCC(F)(F)CC3)nc2c1 (single isomer, unassigned) [Example 529, N—((S)-(7-((S*)-1-(2-(3,3-Difluorocyclobutyl)acetamido)-2-ethoxyethyl)imidazo[1,2-b]pyridazin-2-yl)(4,4-difluorocyclohexyl)methyl)-1-isopropyl-1H-pyrazole-5-carboxamide] |  | 120
19 | 43 | CCOc1nonc1C(=O)N[C@H](c1cn2ncc([C@H](NC(=O)CC3CC(F)(F)C3)C3CC3)cc2n1)C1CCC(F)(F)CC1 [Example 391, N—((S)-(7-((R)-Cyclopropyl(2-(3,3-difluorocyclobutyl)acetamido)methyl)imidazo[1,2-b]pyridazin-2-yl)(4,4-difluorocyclohexyl)methyl)-4-ethoxy-1,2,5-oxadiazole-3-carboxamide] | 47 | 
20 | 120 | CO[C@@H](C)[C@@H](NC(=O)CC1CC(F)(F)C1)c1cnn2cc([C@@H](NC(=O)c3nonc3C)C3CCC(F)(F)CC3)nc2c1 [Example 323, N—((S)-(7-((1S,2S)-1-(2-(3,3-Difluorocyclobutyl)acetamido)-2-methoxypropyl)imidazo[1,2-b]pyridazin-2-yl)(4,4-difluorocyclohexyl)methyl)-4-methyl-1,2,5-oxadiazole-3-carboxamide] | 670 | 
21 | 130 | CC(C)n1nccc1C(=O)N[C@H](c1cn2ncc([C@H](NC(=O)C[C@@H]3CC3(F)F)C3CC3)cc2n1)C1CCC(F)(F)CC1 (single isomer, unassigned) [Example 141] | 200 | 
